Measurements reported in patent publication US20260159474A1, “Aminoindane Compounds and Compositions and Methods of Their Therapeutic Use” (Solvonis Therapeutics Ireland Holdings Limited, priority 2021, published 2026).
Several values for one entry are separate records, joined by “and”; a condition that tells them apart may be missing. Equal entries are not always repeated.

How the values were obtained:
human DAT = molecular target: T1, human DAT (Homo sapiens, UniProt Q01959); test: DAT uptake SPA in hDAT-CHO cells; assay type: cell-based; conditions: [3H]-dopamine uptake, hDAT-CHO cells; read-out: DAT Uptake SPA (pIC50) (converted)
T1 construct: expressed in transfected cells; host or cells: CHO (hDAT-CHO)
T1 sequence (Q01959 whole entry): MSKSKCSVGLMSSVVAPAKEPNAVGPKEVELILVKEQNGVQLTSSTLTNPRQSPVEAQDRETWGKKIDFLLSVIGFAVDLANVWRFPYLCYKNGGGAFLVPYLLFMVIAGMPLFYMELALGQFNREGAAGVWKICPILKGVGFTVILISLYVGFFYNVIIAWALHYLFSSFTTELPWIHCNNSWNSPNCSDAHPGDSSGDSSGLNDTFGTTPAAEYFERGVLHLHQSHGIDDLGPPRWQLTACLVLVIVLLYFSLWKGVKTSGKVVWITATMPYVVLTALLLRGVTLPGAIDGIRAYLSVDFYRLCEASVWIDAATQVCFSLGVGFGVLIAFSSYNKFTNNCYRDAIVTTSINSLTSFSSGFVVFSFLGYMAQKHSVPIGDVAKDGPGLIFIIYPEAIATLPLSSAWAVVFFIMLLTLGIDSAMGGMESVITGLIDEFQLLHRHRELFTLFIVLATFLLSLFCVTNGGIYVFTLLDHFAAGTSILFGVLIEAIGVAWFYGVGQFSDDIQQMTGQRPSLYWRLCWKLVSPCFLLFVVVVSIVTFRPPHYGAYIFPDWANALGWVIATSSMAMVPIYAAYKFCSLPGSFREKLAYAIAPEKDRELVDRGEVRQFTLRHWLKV
Experimental: Methods-Evaluation of Monoamine Uptake/Transporter Inhibition: Inhibitory activity on DAT function was measured using an uptake assay in a recombinant CHO cell line stably expressing human DAT (hDAT-CHO). Potency was measured in terms of pIC50 by testing for inhibition of [3H]-dopamine uptake in hDAT-CHO cells in a multiwell format SPA.
(§4) Briefly, on experiment days, hDAT-CHO cells were detached using Versene and added at a density of approximately 300,000 cells/mL to the SPA Mixture, which contains the following components in Assay Buffer (20 mM HEPES, 145 mM NaCl, 5 mM KCl, 2 mM CaCl2), 1 mM MgCl2, 5.5 mM glucose, 0.01% Pluronic F127, pH 7.3): 0.75 mg/mL SPA Imaging beads (RPNQ0001, PerkinElmer), 10 μM pargyline and 80 nM of [3H]-dopamine (NET673, PerkinEImer). The SPA Mixture was added 20 μL/well to 384 well plates containing 0.1 μL/well of test compound in neat DMSO (11 points of 1:5 serial dilution, 0.5% DMSO final) or 0.1 μL of DMSO (total uptake) or 0.1 μL of the standard inhibitor indatraline (at 1 μM final concentration, as nonspecific uptake). Plates were sealed with a Top-seal A and read using a Microbeta counter (PerkinElmer) after 45 minutes of incubation at room temperature. […] The SPA Mixture was added 20 μL/well to 384 well plates containing 0.1 μL/well of test compound in neat DMSO (11 points of 1:5 serial dilution, 0.5% DMSO final), 0.1 μL of DMSO (total uptake), or 0.1 μL of the standard inhibitor indatraline (1 μM, nonspecific uptake). Plates were sealed with a Top-seal A and read using a Microbeta counter (PerkinElmer) after 120 minutes of incubation at room temperature.
For both tests, the raw experimental data (cpm) were elaborated for the determination of pIC50/IC50 values as % inhibition of specific uptake.

hSERT = molecular target: T2, hSERT (Homo sapiens, UniProt P31645); test: SERT uptake SPA in hSERT-CHO cells; assay type: cell-based; conditions: for IC50: [3H]-serotonin uptake, hSERT-CHO cells, read-out: SERT Uptake SPA (pIC50) (converted)
T2 construct: expressed in transfected cells; host or cells: CHO (hSERT-CHO)
T2 sequence (P31645 whole entry): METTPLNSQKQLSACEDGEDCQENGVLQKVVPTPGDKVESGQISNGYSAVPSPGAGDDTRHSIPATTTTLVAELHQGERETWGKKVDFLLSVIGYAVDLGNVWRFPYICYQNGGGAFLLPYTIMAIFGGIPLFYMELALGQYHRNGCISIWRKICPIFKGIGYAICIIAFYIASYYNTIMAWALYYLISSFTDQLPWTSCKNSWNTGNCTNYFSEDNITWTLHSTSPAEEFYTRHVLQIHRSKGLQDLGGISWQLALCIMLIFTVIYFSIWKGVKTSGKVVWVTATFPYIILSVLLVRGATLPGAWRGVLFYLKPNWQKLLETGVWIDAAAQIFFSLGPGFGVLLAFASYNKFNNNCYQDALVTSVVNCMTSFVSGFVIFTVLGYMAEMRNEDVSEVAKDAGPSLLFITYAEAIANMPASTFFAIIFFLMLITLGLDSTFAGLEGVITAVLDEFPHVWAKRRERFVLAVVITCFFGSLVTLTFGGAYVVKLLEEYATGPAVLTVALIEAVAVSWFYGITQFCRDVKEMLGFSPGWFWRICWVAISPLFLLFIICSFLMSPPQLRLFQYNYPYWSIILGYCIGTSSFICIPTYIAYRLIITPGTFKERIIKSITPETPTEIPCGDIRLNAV
Experimental: as §4
For both tests, the raw experimental data (cpm) were elaborated for the determination of pIC50/IC50 values as % inhibition of specific uptake. Concentration-response curves of MDMA, MDDMA, citalopram and GBR-12909 were used as internal standards in all experiments, and the signal window was monitored in each plate performing Z′ calculations, as described in Zhang et al., J Biomol Screen.

[1] = system: DA release in rat synaptosomes; test: Dopamine release assay in rat striatal synaptosomes; assay type: biochemical; conditions: % of maximal release with 50 μM MDMA, n=2
Experimental: (§1) Methods-Evaluation of Monoamine Release: The potency of therapeutic compounds for stimulating DA release was measured by an endpoint release filtration assay in a 96-well format using rat synaptosomes, essentially as described by Sandtner et al. (Mol Pharmacol., 2016; 89(1):165-75.) and Baumann et al. (Neuropsychopharmacol, 2013; 38:552-562.) with some variations. One male rat was euthanized, and striatum/cortex regions were dissected over ice. The striatum portions were weighed and put in a glass tube containing ice-cold 0.32 M sucrose (dilution 1:24 w/v) for homogenization, while the frontal cortex tissue was diluted in ice-cold 0.32 M sucrose, 1:20 w/v. Tissues were homogenized and centrifuged for 10 mins at 1000×g. The two supernatants from striatum and cortex (crude synaptosomes) were retained on ice until use.
(§2) Test compounds were then serially diluted 1:4 in neat DMSO as concentration-response curves (CRC) of 11 points. To each well of a 2-mL 96 deep-well plate (Whatman UNIPLATE 96 well) were added: 2 μL of a concentration-response curve (CRC) of test compounds or 2 μL of DMSO (no-release condition) or 2 μL of MDMA 10 mM solution (final 50 μM, for maximal release), followed by 200 μL/well of complete Krebs-phosphate buffer (126 mM NaCl, 2.4 mM KCl, 0.83 mM CaCl2), 0.8 mM MgCl2, 0.5 mM KH2PO4, 0.5 mM Na2SO4, 11.1 mM glucose, 0.05 mM pargyline, 1 mg/mL ascorbic acid, freshly added, pH 7.4), containing 1 μM reserpine to block vesicular uptake of substrate. Desipramine (100 nM) and citalopram (100 nM) were also added to the release assay buffer in order to inhibit NET and SERT uptake, respectively. The final compound dilution, then, was 1:200 in 0.5% DMSO.
3H-Dopamine was added to the tube containing the crude striatal synaptosomes preparation, diluted 1:20 (v/v) in complete Krebs-phosphate buffer, and was incubated at RT and gently mixed for 60 minutes. Then, 200 μL/well of 3H-DA loaded synaptosomes were dispensed to the compound plate (final 400 μL/well), and the release reaction proceeded for an additional 15 minutes at RT. The release was terminated by vacuum filtration and washing three times with 1 mL of saline solution (NaCl 0.9%) at RT. The retained radioactivity was counted in a scintillation counter after the addition of 50 μL/well Microscint-20.
(§3) The raw data (cpm) from residual radioactivity onto the filter were elaborated for the determination of pEC50/EC50 values. Specifically, the compound effect was expressed as the percent of maximal release obtained with 50 μM MDMA (100% release) in comparison to vehicle (0.5% DMSO, 0% release). Both MDMA and D-amphetamine in CRC were used as internal controls in each release experiment. In each plate, for both 0% and 100% of release, the signal window was monitored and Z′ calculations were determined using the raw data of four replicates. 5-HT release was calculated in an identical fashion, except that 5 nM 3H-serotonin was added to crude cortex synaptosomes preparation diluted 1:13 (v/v) in complete Krebs-phosphate buffer containing 1 μM Reserpine, 100 nM GBR12909 and 100 nM nomifensine to block vesicular, DAT, and NET uptake, respectively. Synaptosomes were then loaded with 3H-5HT for 60 minutes at RT. After dispensing loaded synaptosomes onto a compound plate (200 μL/well), the release reaction proceeded for an additional 15 minutes. Stop by filtration, counting, and data elaboration were performed as described for DA release. Compounds were tested in duplicate (n=2).

[2] = system: 5-HT release in rat synaptosomes; test: Serotonin release assay in rat cortex synaptosomes; assay type: biochemical; conditions: for 5-HT Release (pEC50): rat cortex synaptosomes, % of maximal release with 50 μM MDMA, n=2; for SERT/DAT Release Ratio: ratio of 5-HT and DA release potency, rat synaptosomes
Experimental: as §1, §2, §3

DAT/SERT = conditions: Simmler et al., Br J Pharmacol. 2013; cited from earlier work

| SMILES | IC50 (human DAT) | IC50 (hSERT) | SERT/DAT Uptake Ratio (hSERT; calculated as 1/SERT IC50:1/DAT IC50) | DA Release (pEC50) [1] | 5-HT Release (pEC50) [2] | SERT/DAT Release Ratio [2] | DAT/SERT ratio (DAT/SERT) |
| --- | --- | --- | --- | --- | --- | --- | --- |
| COC(=O)Cc1ccc2c(c1)CC(N)C2 (centres unmarked) [CMP-406] | > 100 µM | 63.1 µM | >1.6 | <4.0 | 4.3 | >2.0 | – |
| COC(=O)CCc1ccc2c(c1)CC(N)C2 (centres unmarked) [CMP-407] | 63.1 µM | 25.1 µM | – | 4.6 | <4.0 | <0.25 | – |
| COC(=O)Cc1cc2c(cc1OC)CC(N)C2 (centres unmarked) [CMP-408] | 100 µM | 39.8 µM | – | <4.0 | 4.6 | 3.9 | – |
| CN[C@@H](C)Cc1ccccc1 [methamphetamine] | – | – | – | – | – | – | > 10 and 10 |
